# Experimental data: patent US20250059264A1, “METHOD OF TREATING STROKE” (AlaMab Therapeutics, Inc., priority 2023, published 2025)
# Tests used:
# [1] = tested on: mouse model of stroke induced by middle cerebral artery occlusion (MCAO); test: Rotarod test, time of treatment (Example 2); type: in vivo, ICR mice
# Description: (§1) The administration of 10 mg/kg butylphthalide and 50 mg/kg ALMB-0166 was started 30 minutes, 2 hours, or 6 hours after the MCAO procedure of the mice. Ninety-six (96) ICR mice received behavioral training after adaptive feeding period and before the operation to establish stroke models. The behavioral training included beam-walking and rotarod test. The experimental mice were then randomly divided into 8 groups according to the values of the body weight, with 12 mice in each test group as described in Table 1. The mice were fasted overnight before modeling and were anesthetized with isoflurane. Right middle cerebral artery occlusion (MCAO) was induced in mice using the intraluminal filament technique to mimic focal cerebral ischemic stroke. After 1 hr, reperfusion was allowed by removing the occlusion. Administration of each treatment was performed 0.5 hrs, 2 hrs, or 6 hrs after the infarction. The neurological function score was evaluated at 24 hrs and 48 hrs after reperfusion, as was assessed by beam-walking, grip strength, and rotarod tests. At 48 hrs after reperfusion, the whole brain tissue of all rats was harvested to assess the cerebral infarct area by TTC staining, as well as to measure brain volume and brain water content, two indicators of acute cerebral edema.
# [2] = tested on: rat model of stroke induced by middle cerebral artery occlusion (MCAO); set-up: species or system SD rats; settings: in vivo
# Description: The first administration of the respective treatments was started 30 minutes (Day 1 of study) after the MCAO procedure of the rats. For the butylphthalide group, subsequent doses were administered every day after for 14 days. For the ALMB-0166 test groups, a second dose of the antibody was administered at Day 4 post-stroke (Day 4 of the study). Thirty-six (36) SD rats received behavioral training after adaptive feeding period and before the operation to establish stroke models. The behavioral training included beam-walking, grip and rotarod tests. The experimental rats were then randomly divided into 6 groups according to the body weight, with 6 rats in each test group as described in Table 15. The rats were fasted overnight before modeling and were anesthetized with isoflurane. […] The body weight of rats was recorded before the operation (Day 0 of study) and on Days 2, 4, 7, and 11 after the procedure. The rats were scored by the Longa method at Day 1 (24-hours) post-procedure. The neurological function was evaluated at Days 1, 2, 4, 7, and 14 after the procedure, and was assessed by beam-walking, grip strength, and rotarod tests. […] The total infarct volume was determined, and the infarct volume ratio was calculated by dividing the total infarct volume by the whole brain volume. […]
# [3] = tested on: mouse model of stroke induced by middle cerebral artery occlusion (MCAO); test: Brain water content, time of treatment (Example 2); type: in vivo, ICR mice; settings: 48 h after reperfusion
# Description: as §1
# [4] = tested on: rat model of stroke induced by middle cerebral artery occlusion (MCAO); test: Grip strength (Example 3); type: in vivo, SD rats; settings: 10 mg/kg (table label) i.v. Bid from 30 min after infarction
# Description: (§2) The administration of the respective treatments was started 30 minutes after the MCAO procedure of the rats.
# (§3) Seventy-two (72) SD rats received behavioral training after adaptive feeding period and before the operation to establish stroke models. The behavioral training included beam-walking, grip and rotarod tests. The experimental rats were then randomly divided into 6 groups according to the body weight, with 12 rats in each test group as described in Table 15.
# (§4) The rats were fasted overnight before modeling and were anesthetized with isoflurane. Right middle cerebral artery occlusion (MCAO) was induced in each rat using the intraluminal filament technique to mimic focal cerebral ischemic stroke. After 2 hrs, reperfusion was allowed by removing the occlusion.
# (§5) Administration of each treatment was performed 0.5 h after the infarction. The rats were scored by the Longa method at 24-hours post-procedure. The neurological function was evaluated at 24-hr and 48-hr after reperfusion, and was assessed by beam-walking, grip strength, and rotarod tests. At 48 h after reperfusion, the whole brain tissue of all rats was harvested to assess the cerebral infarct area by TTC staining, as well as to measure brain volume and brain water content, two indicators of acute cerebral edema.
# [5] = tested on: rat model of stroke induced by middle cerebral artery occlusion (MCAO); test: Grip strength, dosing regimen (Example 4); type: in vivo, SD rats; settings: 10 mg/kg (table label) i.v. Bid from 30 min after infarction
# Description: The first administration of the respective treatments was started 30 minutes (Day 1 of study) after the MCAO procedure of the rats. For the butylphthalide group, subsequent doses were administered every day after for 14 days. For the ALMB-0166 test groups, a second dose of the antibody was administered at Day 4 post-stroke (Day 4 of the study). Thirty-six (36) SD rats received behavioral training after adaptive feeding period and before the operation to establish stroke models. The behavioral training included beam-walking, grip and rotarod tests. The experimental rats were then randomly divided into 6 groups according to the body weight, with 6 rats in each test group as described in Table 15. The rats were fasted overnight before modeling and were anesthetized with isoflurane. Right middle cerebral artery occlusion (MCAO) was induced in each rat using the intraluminal filament technique to mimic focal cerebral ischemic stroke. After 2 hrs, reperfusion was allowed by removing the occlusion. Administration of butylphthalide was performed 0.5 hrs after the infarction, and every day after the operation (14 days). Administration of ALMB-0166 and the vehicle treatment was performed at 0.5 hrs and at Day 4 after the operation. The body weight of rats was recorded before the operation (Day 0 of study) and on Days 2, 4, 7, and 11 after the procedure. The rats were scored by the Longa method at Day 1 (24-hours) post-procedure. The neurological function was evaluated at Days 1, 2, 4, 7, and 14 after the procedure, and was assessed by beam-walking, grip strength, and rotarod tests. At Day 14 after reperfusion, the whole brain tissue of all rats was harvested to assess the cerebral infarct area by TTC staining. The total infarct volume was determined, and the infarct volume ratio was calculated by dividing the total infarct volume by the whole brain volume. For calculating the infarct volume rate, the difference in infarct volume ratio between the model group and the corresponding administration group was divided by the infarct volume ratio of the model group.
# [6] = tested on: rat model of stroke induced by middle cerebral artery occlusion (MCAO); test: Beam-walking test (Example 3); type: in vivo, SD rats; settings: 10 mg/kg (table label) i.v. Bid from 30 min after infarction
# Description: as §2, §3, §4, §5
# [7] = tested on: mouse model of stroke induced by middle cerebral artery occlusion (MCAO); test: Grip strength, time of treatment (Example 2); type: in vivo, ICR mice
# Description: as §1
# [8] = tested on: rat model of stroke induced by middle cerebral artery occlusion (MCAO); test: Brain water content (Example 3); type: in vivo, SD rats; settings: 10 mg/kg (table label) i.v. Bid from 30 min after infarction; 48 h after reperfusion
# Description: as §2, §3, §4, §5
# [9] = tested on: rat model of stroke induced by middle cerebral artery occlusion (MCAO); test: Brain volume (Example 3); type: in vivo, SD rats; settings: 10 mg/kg (table label) i.v. Bid from 30 min after infarction; 48 h after reperfusion
# Description: as §2, §3, §4, §5
# [10] = tested on: rat model of stroke induced by middle cerebral artery occlusion (MCAO); test: Rotarod test (Example 3); type: in vivo, SD rats; settings: 10 mg/kg (table label) i.v. Bid from 30 min after infarction
# Description: as §2, §3, §4, §5
# [11] = tested on: mouse model of stroke induced by middle cerebral artery occlusion (MCAO); test: Rotarod test (Example 1); type: in vivo, ICR mice; settings: 10 mg/kg i.v. Bid from 30 min after infarction
# Description: The administration of the respective treatments was started 30 minutes after the MCAO procedure of the mice.
# Seventy-two (72) ICR mice received behavioral training after adaptive feeding period and before the operation to establish stroke models. The behavioral training included beam-walking and rotarod test. The experimental mice were then randomly divided into 6 groups according to the values of the body weight, with 12 mice in each test group as described in Table 1.
# as §4, with “mice” for “rats”, “mice” for “each rat”, “1 hr,” for “2 hrs,”, “occlusion. During the operation, a white light was used to maintain the mouse rectal temperature between 36.5° C.-37.0° C.” for “occlusion.”
# as §5, with “The” for “The rats were scored by the Longa method at 24-hours post-procedure. The”, “function score” for “function”, “at 24 hrs” for “at 24-hr”, “and 48 hrs” for “and 48-hr”, “reperfusion, as” for “reperfusion, and”
# [12] = tested on: mouse model of stroke induced by middle cerebral artery occlusion (MCAO); test: Cerebral infarct volume by TTC staining, time of treatment (Example 2); type: in vivo, ICR mice; settings: 10 mg/kg i.v. once 0.5 hr after infarction; 48 h after reperfusion
# Description: as §1
# [13] = 10 mg/kg i.v. once 0.5 hr after infarction, 24 h
# [14] = 10 mg/kg i.v. once 0.5 hr after infarction, 48 h
# [15] = 10 mg/kg i.v. once 2 hr after infarction, 24 h
# [16] = 10 mg/kg i.v. once 2 hr after infarction, 48 h
# [17] = 10 mg/kg i.v. once 6 hr after infarction, 24 h
# [18] = 10 mg/kg i.v. once 6 hr after infarction, 48 h
# [19] = 10 mg/kg i.v. once 0.5 hr after infarction
# [20] = 10 mg/kg i.v. once 2 hr after infarction
# [21] = 10 mg/kg i.v. once 6 hr after infarction
structure (smiles),measurement,setting,value
CCCCC1OC(=O)c2ccccc21 (stereo not drawn) [Butylphthalide],"Rotarod test score, Time",[1]; [13],151.83 s
same,"Rotarod test score, Time",[1]; [14],193.25 s
same,"Rotarod test score, Time",[1]; [15],124.67 s
same,"Rotarod test score, Time",[1]; [16],171.67 s
same,"Rotarod test score, Time",[1]; [17],121.42 s
same,"Rotarod test score, Time",[1]; [18],98.00 s
same,Body weight compared to model test group,[2],No statistically significant difference
same,Brain water content,[3]; [19],329.00 mg
same,Brain water ratio,[3]; [19],81.23%
same,Brain water content,[3]; [20],326.33 mg
same,Brain water ratio,[3]; [20],81.25%
same,Brain water content,[3]; [21],342.83 mg
same,Brain water ratio,[3]; [21],82.36%
same,Grip Strength,[4]; 24 h,404.73 g
same,Grip Strength,[4]; 48 h,419.93 g
same,Grip Strength,[5]; Day 0,504.65 g
same,Grip Strength,[5]; Day 2,565.99 g
same,Grip Strength,[5]; Day 4,520.36 g
same,Grip Strength,[5]; Day 7,523.26 g
same,Grip Strength,[5]; Day 14,585.23 g
same,Beam-walking time,[6]; 24 h,38.91 s
same,Beam-walking time,[6]; 48 h,45.80 s
same,Grip Strength,[7]; [13],203.13 ± 35.30 g
same,Grip Strength,[7]; [14],196.04 ± 41.72 g
same,Grip Strength,[7]; [15],199.41 ± 38.48 g
same,Grip Strength,[7]; [16],186.33 ± 44.64 g
same,Grip Strength,[7]; [17],187.08 ± 53.81 g
same,Grip Strength,[7]; [18],168.16 ± 66.94 g
same,Brain water content,[8],1282.00 mg
same,Brain water ratio,[8],78.80%
same,Brain volume,[9],1.597 ± 0.11 mL
same,"Rotarod test score, Time",[10]; 24 h,69.83 s
same,"Rotarod test score, Time",[10]; 48 h,86.42 s
same,"Rotarod test score, Time",[11]; 24 h,216.67 ± 91.22 s
same,"Rotarod test score, Time",[11]; 48 h,146.50 ± 137.21 s
same,Cerebral Infarction Volume,[12],28.56%
